Data on 21 compounds can be found in patent US12780800B1, “Triazole-pyridinyl substituted azacyclohexyl acetic acid compounds as LPA receptor antagonists” (Viva Star Biosciences Limited, priority 2021, dated 2022).

The target in the assay is T1, LPA1 (Homo sapiens, UniProt Q92633).
T1 construct: ProLink (PK) beta-galactosidase enzyme-fragment tag; host or cells: CHO-K1
T1 sequence (Q92633 whole entry, the tested form may be a part): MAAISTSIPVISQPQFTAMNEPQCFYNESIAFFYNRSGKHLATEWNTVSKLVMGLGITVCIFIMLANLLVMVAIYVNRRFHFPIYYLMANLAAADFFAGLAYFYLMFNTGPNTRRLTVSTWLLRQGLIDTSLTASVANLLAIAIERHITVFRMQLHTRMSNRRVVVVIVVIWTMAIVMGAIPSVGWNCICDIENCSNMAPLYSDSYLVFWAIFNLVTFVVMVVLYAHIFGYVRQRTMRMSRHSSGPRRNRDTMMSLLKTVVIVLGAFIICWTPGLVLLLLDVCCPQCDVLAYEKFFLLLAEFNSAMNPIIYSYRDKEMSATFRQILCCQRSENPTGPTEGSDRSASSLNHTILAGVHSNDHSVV
The assay is described as follows: LPA1 calcium flux assay (LPA1 functional antagonist assay). The class given is cell-based. The note with it: PathHunter CHO-K1 EDG2 β-Arrestin cell line; calcium indicator dye; stimulated with EC80 concentration of LPA; FLIPR Tetra. The procedure, abridged: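 The LPA1 antagonist readout was intracellular calcium flux, and IC50 values were calculated from it. Plates stood 30 min at RT after compound addition. Cells, grown overnight, had first taken up calcium dye over 45 min at 37 °C.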
As usually defined, the IC50 is the point on the concentration scale where inhibition reaches its midpoint. In the case of `CCc1nc(-c2cnn(C)c2Cn2nncc2CC2CC2)ncc1N1C[C@@H](CC(=O)O)CC(F)(F)C1` [Example 134, (S)-2-(1-(2-(5-((5-(cyclopropylmethyl)-1H-1,2,3-triazol-1-yl)methyl)-1-methyl-1H-pyrazol-4-yl)-4-ethylpyrimidin-5-yl)-5,5-difluoropiperidin-3-yl)acetic acid], the half-inhibitory concentration (IC50) was in the range of 100 to 500 nM. In the case of `CCc1nc(-c2cnn(C)c2Cn2cc(CC3CC3)nn2)ncc1N1C[C@@H](CC(=O)O)CC(F)(F)C1` [Example 135, (S)-2-(1-(2-(5-((4-(cyclopropylmethyl)-1H-1,2,3-triazol-1-yl)methyl)-1-methyl-1H-pyrazol-4-yl)-4-ethylpyrimidin-5-yl)-5,5-difluoropiperidin-3-yl)acetic acid] it was more than 5000 nM. As to `CCc1nc(-c2cnn(C)c2Cn2ncc(CC3CC3)n2)ncc1N1C[C@@H](CC(=O)O)CC(F)(F)C1` [Example 136, (S)-2-(1-(2-(5-((4-(cyclopropylmethyl)-2H-1,2,3-triazol-2-yl)methyl)-1-methyl-1H-pyrazol-4-yl)-4-ethylpyrimidin-5-yl)-5,5-difluoropiperidin-3-yl)acetic acid], the half-inhibitory concentration (IC50) is 100 to 500 nM. In the case of `CCc1nc(-c2nnn(C)c2Cn2nnc(CC3CC3)n2)ccc1N1C[C@@H](CC(=O)O)CC(F)(F)C1` [Example 137, 2-[(3S)-1-[6-(5-{[5-(cyclopropylmethyl)-2H-1,2,3,4-tetrazol-2-yl]methyl}-1-methyl-1H-1,2,3-triazol-4-yl)-2-ethylpyridin-3-yl]-5,5-difluoropiperidin-3-yl]acetic acid] it was 100 to 500 nM; in that of `CCc1nc(-c2nnn(C)c2Cn2nnnc2CC2CC2)ccc1N1C[C@@H](CC(=O)O)CC(F)(F)C1` [Example 138, 2-[(3S)-1-[6-(5-{[5-(cyclopropylmethyl)-1H-1,2,3,4-tetrazol-1-yl]methyl}-1-methyl-1H-1,2,3-triazol-4-yl)-2-ethylpyridin-3-yl]-5,5-difluoropiperidin-3-yl]acetic acid], 100 to 500 nM; in that of `CCCN(C)C(=O)OCc1c(-c2ccc(N3C[C@@H](CC(=O)O)CC(F)(F)C3)c(C)n2)nnn1C` [Example 139, (S)-2-(5,5-difluoro-1-(2-methyl-6-(1-methyl-5-(((methyl(propyl)carbamoyl)oxy)methyl)-1H-1,2,3-triazol-4-yl)pyridin-3-yl)piperidin-3-yl)acetic acid], 100 to 500 nM. On to `Cc1nc(-c2nnn(C)c2COC(=O)N(C)CC2CC2)ccc1N1C[C@@H](CC(=O)O)CC(F)(F)C1` [Example 140, (S)-2-(1-(6-(5-((((cyclopropylmethyl)(methyl)carbamoyl)oxy)methyl)-1-methyl-1H-1,2,3-triazol-4-yl)-2-methylpyridin-3-yl)-5,5-difluoropiperidin-3-yl)acetic acid], for which the IC50 was 100 to 500 nM.

For the compound `CCc1nc(-c2nnn(C)c2COC(=O)N(C)CC2CC2)ccc1N1C[C@@H](CC(=O)O)CC(F)(F)C1` [Example 141, (S)-2-(1-(6-(5-((((cyclopropylmethyl)(methyl)carbamoyl)oxy)methyl)-1-methyl-1H-1,2,3-triazol-4-yl)-2-ethylpyridin-3-yl)-5,5-difluoropiperidin-3-yl)acetic acid], the IC50 was 100 to 500 nM.

With `Cc1nc(-c2nnn(C)c2COC(=O)N(C)C2CCC2)ccc1N1C[C@@H](CC(=O)O)CC(F)(F)C1` [Example 142, (S)-2-(1-(6-(5-(((cyclobutyl(methyl)carbamoyl)oxy)methyl)-1-methyl-1H-1,2,3-triazol-4-yl)-2-methylpyridin-3-yl)-5,5-difluoropiperidin-3-yl)acetic acid], the IC50 fell in the range of 100 to 500 nM.

For the compound `CCc1nc(-c2nnn(C)c2COC(=O)N(C)C2CCC2)ccc1N1C[C@@H](CC(=O)O)CC(F)(F)C1` [Example 143, (S)-2-(1-(6-(5-(((cyclobutyl(methyl)carbamoyl)oxy)methyl)-1-methyl-1H-1,2,3-triazol-4-yl)-2-ethylpyridin-3-yl)-5,5-difluoropiperidin-3-yl)acetic acid], the concentration for half-maximal inhibition (IC50) was less than 100 nM.

As to `CCCN(C)C(=O)OCc1c(-c2ccc(N3CCC[C@H](CC(=O)O)C3)c(C)n2)nnn1C` [Example 144, (R)-2-(1-(2-methyl-6-(1-methyl-5-(((methyl(propyl)carbamoyl)oxy)methyl)-1H-1,2,3-triazol-4-yl)pyridin-3-yl)piperidin-3-yl)acetic acid], the IC50 lay within 500 to 5000 nM.

For `CCCN(C)C(=O)OCc1c(-c2ccc(N3CCC[C@H](CC(=O)O)C3)c(CC)n2)nnn1C` [Example 145, (R)-2-(1-(2-ethyl-6-(1-methyl-5-(((methyl(propyl)carbamoyl)oxy)methyl)-1H-1,2,3-triazol-4-yl)pyridin-3-yl)piperidin-3-yl)acetic acid], the IC50 fell in the range of 500 to 5000 nM. With `CCCN(C)C(=O)OCc1c(-c2ccc(N3C[C@@H](CC(=O)O)CC(F)(F)C3)c(CC)n2)nnn1C` [Example 146, (S)-2-(1-(2-ethyl-6-(1-methyl-5-(((methyl(propyl)carbamoyl)oxy)methyl)-1H-1,2,3-triazol-4-yl)pyridin-3-yl)-5,5-difluoropiperidin-3-yl)acetic acid], the 50% inhibitory concentration (IC50) is more than 5000 nM. Regarding `CCc1nc(-c2nnn(C)c2CNc2nccc(C3CC3)n2)ccc1CN1CC(C(=O)O)CC(F)(F)C1` (stereo not drawn) [Example 151, 1-((6-(5-(((4-cyclopropylpyrimidin-2-yl)amino)methyl)-1-methyl-1H-1,2,3-triazol-4-yl)-2-ethylpyridin-3-yl)methyl)-5,5-difluoropiperidine-3-carboxylic acid], the IC50 is 500 to 5000 nM. The value for `CCCN(C)C(=O)OCc1c(-c2ccc(CN3CCOC(C(=O)O)C3)c(C)n2)nnn1C` (stereo not drawn) [Example 166, 4-((2-methyl-6-(1-methyl-5-(((methyl (propyl)carbamoyl)oxy)methyl)-1H-1,2,3-triazol-4-yl)pyridin-3-yl)methyl)morpholine-2-carboxylic acid] was more than 5000 nM; that for `Cn1nnc(-c2ccc(N3CCC[C@H](CC(=O)O)C3)c(C(F)F)n2)c1Cn1ncc(CC2CC2)n1` [Example 167, (R)-2-(1-(6-(5-((4-(cyclopropylmethyl)-2H-1,2,3-triazol-2-yl)methyl)-1-methyl-1H-1,2,3-triazol-4-yl)-2-(difluoromethyl)pyridin-3-yl)piperidin-3-yl)acetic acid] was less than 100 nM. In the case of `Cn1nnc(-c2ccc(N3CCC[C@H](CC(=O)O)C3)c(C(F)F)n2)c1Cn1nncc1CC1CC1` [Example 168, (R)-2-(1-(6-(5-((5-(cyclopropylmethyl)-1H-1,2,3-triazol-1-yl)methyl)-1-methyl-1H-1,2,3-triazol-4-yl)-2-(difluoromethyl)pyridin-3-yl)piperidin-3-yl)acetic acid], the concentration for half-maximal inhibition (IC50) was less than 100 nM. In the case of `Cn1nnc(-c2ccc(N3CCC[C@H](CC(=O)O)C3)c(C(F)F)n2)c1Cn1cc(CC2CC2)nn1` [Example 169, (R)-2-(1-(6-(5-((4-(cyclopropylmethyl)-1H-1,2,3-triazol-1-yl)methyl)-1-methyl-1H-1,2,3-triazol-4-yl)-2-(difluoromethyl)pyridin-3-yl)piperidin-3-yl)acetic acid] it was 100 to 500 nM; in that of `CCCN(C)C(=O)OCc1c(-c2ccc(N3CCOC(CC(=O)O)C3)c(CC)n2)nnn1C` (stereo not drawn) [Example 170, 2-(4-(2-ethyl-6-(1-methyl-5-(((methyl(propyl)carbamoyl)oxy)methyl)-1H-1,2,3-triazol-4-yl)pyridin-3-yl)morpholin-2-yl)acetic acid], 500 to 5000 nM.

Take `CCc1nc(-c2nnn(C)c2COc2nccc(C3CCC3)n2)ccc1N1CCOC(CC(=O)O)C1` (stereo not drawn) [Example 171, 2-(4-(6-(5-(((4-cyclobutylpyrimidin-2-yl)oxy)methyl)-1-methyl-1H-1,2,3-triazol-4-yl)-2-ethylpyridin-3-yl)morpholin-2-yl)acetic acid]: the IC50 was less than 100 nM. In the case of `CCCc1ccc(=O)n(Cc2c(-c3ccc(N4CCO[C@H](CC(=O)O)C4)c(CC)n3)nnn2C)c1` [Example 172, 2-[(2R)-4-(2-ethyl-6-{1-methyl-5-[(2-oxo-5-propyl-1,2-dihydropyridin-1-yl)methyl]-1H-1,2,3-triazol-4-yl}pyridin-3-yl)morpholin-2-yl]acetic acid], the IC50 is 500 to 5000 nM.
